Test results as given in ChEMBL document CHEMBL1130221, “Constrained corticotropin-releasing factor antagonists with i-(i + 3) Glu-Lys bridges” (1997).

Assays:
Rattus norvegicus [1] = species: Rattus norvegicus; test: The percent intrinsic activity, determined by level of antagonist induced secretion; type: functional
Rattus norvegicus [2] = species: Rattus norvegicus; test: In vitro relative potency versus [DPhe12,Nle21,38]-hCRF(12-41), using rat pituitary culture assay; type: functional

Row | Structure (SMILES) | IA (Rattus norvegicus [1]) [%] | Relative potency (Rattus norvegicus [2])
1 | CCCC[C@H](NC(=O)[C@H](CCC(=O)O)NC(=O)[C@H](CC(C)C)NC(=O)[C@@H](NC(=O)[C@H](CCC(=O)O)NC(=O)[C@H](CCCN=C(N)N)NC(=O)[C@H](CC(C)C)NC(=O)[C@H](CC(C)C)NC(=O)[C@@H]1CCCCNC(=O)CC[C@H](NC(=O)[C@@H](N)CC(=O)O)C(=O)N[C@@H]([C@@H](C)O)C(=O)N[C@H](Cc2ccccc2)C(=O)N1)C(C)C)C(=O)N[C@@H](C)C(=O)N[C@@H](CCCN=C(N)N)C(=O)N[C@@H](C)C(=O)N[C@@H](CCC(=O)O)C(=O)N[C@@H](CCC(N)=O)C(=O)N[C@@H](CC(C)C)C(=O)N[C@@H](C)C(=O)N[C@@H](CCC(N)=O)C(=O)N[C@@H](CCC(N)=O)C(=O)N[C@@H](C)C(=O)N[C@@H](Cc1c[nH]cn1)C(=O)N[C@@H](CO)C(=O)N[C@@H](CC(N)=O)C(=O)N[C@@H](CCCN=C(N)N)C(=O)N[C@@H](CCCCN)C(=O)N[C@@H](CC(C)C)C(=O)N[C@@H](CCCC)C(=O)N[C@@H](CCC(=O)O)C(=O)N[C@H](C(=O)N[C@H](C(N)=O)[C@@H](C)CC)[C@@H](C)CC | 27 | 0.27
2 | CCCC[C@H](NC(=O)[C@H](CCC(=O)O)NC(=O)[C@H](CC(C)C)NC(=O)[C@@H](NC(=O)[C@H](CCC(=O)O)NC(=O)[C@H](CCCN=C(N)N)NC(=O)[C@H](CC(C)C)NC(=O)[C@@H]1CCCCNC(=O)CC[C@H](NC(=O)[C@H](CC(C)C)NC(=O)[C@@H](N)CC(=O)O)C(=O)N[C@H](Cc2ccccc2)C(=O)N[C@@H](Cc2c[nH]cn2)C(=O)N1)C(C)C)C(=O)N[C@@H](C)C(=O)N[C@@H](CCCN=C(N)N)C(=O)N[C@@H](C)C(=O)N[C@@H](CCC(=O)O)C(=O)N[C@@H](CCC(N)=O)C(=O)N[C@@H](CC(C)C)C(=O)N[C@@H](C)C(=O)N[C@@H](CCC(N)=O)C(=O)N[C@@H](CCC(N)=O)C(=O)N[C@@H](C)C(=O)N[C@@H](Cc1c[nH]cn1)C(=O)N[C@@H](CO)C(=O)N[C@@H](CC(N)=O)C(=O)N[C@@H](CCCN=C(N)N)C(=O)N[C@@H](CCCCN)C(=O)N[C@@H](CC(C)C)C(=O)N[C@@H](CCCC)C(=O)N[C@@H](CCC(=O)O)C(=O)N[C@H](C(=O)N[C@H](C(N)=O)[C@@H](C)CC)[C@@H](C)CC | 29 | 0.005
